{"source": "patent US9101566B2", "about": "“Fermentation product of cereal plant-derived material and immunomodulator” (KIRIN HOLDINGS KABUSHIKI KAISHA, priority 2009, dated 2015)", "key": {"[1]": {"system": "CD4+ T cells in regional lymph node cells and spleen cells of EAE mice", "assay": "EAE model, day 11 autopsy: CD4+ T cell proliferation (CFSE)", "assay_type": "in vivo, mouse", "description": "On day 0, the 35-55 peptide (MOG35-55, Operon), a glycoprotein of myelin oligodendroglial cells, as an antigen was mixed with complete Freund's adjuvant (CFA, Difco) and then the mixture was subcutaneously administered at a dose of 200 μg/animal. Subsequently, pertussis toxin (Wako Pure Chemical Industries, Japan) was intraperitoneally administered at a dose of 200 ng/animal on day 1 and day 3, thereby inducing the onset of multiple sclerosis. During days 7 to 18, 14-DHE was intraperitoneally administered at a dose of 10 μg/animal once a day. To the vehicle group, the following solvent for 14-DHE was administered: 10% ethanol (Wako Pure Chemical Industries, Japan)/10% Cremophor (Wako Pure Chemical Industries, Japan)/80% PBS (Takara, Japan).\nMice were autopsied on day 11 (when inflammation was thought to take place in vivo) to obtain biochemical data.\n(3) Regional lymph node cells and spleen cells were stained using the CellTrace CFSE Proliferation kit (Molecular Probes). The stained cells were seeded at a concentration of 1×10^6 cells/mL and then cultured for 3 days with stimulation with 2 μM MOG. Cells were recovered, stained with CD3-PerCP and CD4-APC, and then subjected to FACS analysis. Cell proliferation was evaluated as a proportion of cells with decreased CFSE fluorescence intensity in all cells."}, "Solubility in solvent": {"assay": "Solubility in solvent", "assay_type": "physicochemical"}, "[2]": {"system": "dendritic cells induced from C57BL/6 mouse bone marrow cells with Flt-3L (mDCs, CD11c+CD11b+)", "assay": "Regulatory DC-inducing activity of 14-dehydroergosterol (Example 9)", "assay_type": "cell-based", "description": "Regulatory DC induction activity was evaluated for 14-dehydroergosterol (14-DHE) isolated and purified from wheat bran fermented with koji as described above and subjected to structural determination. As controls, ergosterol (Wako Pure Chemical Industries, Japan) and 9(11)-dehydroergosterol (9(11)-DHE) (Sigma-Aldrich Corp.), which are ergosterol-related substances, were used. Also, as conjugated linoleic acid (CLA) that was reported in connection with the inhibition of DC activation in the past, CLA (9Z, 11E) and CLA (10E, 12Z) (both, Cayman Chemical), and linoleic acid (Wako Pure Chemical Industries, Japan) were also subjected to activity determination (J. Immunol., 175(8): 4990-8, Oct. 15, 2005). As negative controls, a sample (none) to which no compound had been administered and a sample (ctrl) to which only LPS had been administered were also subjected to activity determination.\nIn a manner similar to Example 2, bone marrow cells were prepared from C57BL/6 mouse thigh bone, and then dendritic cells were induced using Flt-3L. Each test substance was added simultaneously with the initiation of culture at a concentration of 1 μM, 5 μM, or 10 μM. Seven days later, LPS (from Salmonella typhosa) (Sigma-Aldrich Corp.) was added at 5 ng/mL and then 24 hours later the cells were recovered. Subsequently, the cells were stained for the following cell markers and then subjected to flow cytometry analysis. All antibodies used were produced by Becton, Dickinson and Company. CD11c^+CD11b^+ was set as a gate for mDCs and then the expression levels of CD40, CD80, CD86, I-A/I-E, and ICOS-L were measured. Also, IL-12p40 and IL-10 in culture supernatants were measured by ELISA."}, "[3]": {"system": "human DCs from peripheral blood CD14-positive cells", "assay": "Human regulatory DC-inducing activity of 14-DHE (Example 16)", "assay_type": "cell-based", "conditions": "14-DHE 1, 3 or 10 μM; ergosterol 10 μM; LPS/IFN-γ or cytokine cocktail 24 h", "description": "Mononuclear cells were prepared from human peripheral blood by density-gradient centrifugation using Ficoll-Paque (GE Healthcare, Japan). These cells were subjected to positive selection using anti-human CD14 MACS beads (Miltenyi Biotec), so that CD14-positive cells were obtained. CD14-positive cells were cultured in RPMI1640 media (containing 10% FBS (Invitrogen), 50 μmol/L 2-mercaptoethanol (Wako Pure Chemical Industries, Japan), 50 U/mL penicillin, and 50 μg/mL streptomycin (Gibco) (Sigma Aldrich)) supplemented with recombinant human GM-CSF (800 U/mL, Leukine, Berlex) and recombinant human IL-4 (100 ng/mL, Peprotech). During culture, medium exchange was performed once every 2 days. On day 7 of culture, 14-DHE was added at a concentration of 1 μM, 3 μM, or 10 μM. To a control, 10 μM ergosterol, which was a related substance, was added. Also, to a negative control, 1% ethanol, which was a solvent for 14-DHE, was added. The cells were recovered on day 8 of culture, counted, and then suspended at a density of 3×10^5 cells/mL in the above media. To cell suspensions, 1 μg/mL LPS and 100 ng/mL IFN-γ (both, Sigma Aldrich), or cytokine cocktail (1 μg/mL PGE2 (Sigma Aldrich), 10 ng/mL TNF-α, 2 μg/mL IL-6, and 10 ng/mL IL-1β (3 (all, BD Bioscience)) were added, followed by 24-hour culture. After culture, the cells were stained for CD86, HLA-DR, and CD80. Antibodies used were all produced by BD Bioscience. The gate of DCs was set by FSC and SSC, and the expression levels of these cell surface markers were analyzed."}, "[4]": {"conditions": "1, 5 or 10 μM, LPS 5 ng/mL 24 h"}, "[5]": {"conditions": "1, 5 or 10 μM, LPS 5 ng/mL, culture supernatant"}}, "data": [{"smiles": "CC(C)[C@@H](C)/C=C/[C@@H](C)[C@H]1CC=C2C3=CC=C4C[C@@H](O)CC[C@]4(C)[C@H]3CC[C@@]21C", "note": "[Sample 14-DHE, ergosta-5,7,14,22-tetraen-3β-ol]", "values": [{"measurement": "proliferation rate of CD4+ T cells in lymph node cells", "setting": "[1]", "result": "decreasing trend"}, {"measurement": "proliferation rate of CD4+ T cells in spleen cells", "setting": "[1]; with or without re-stimulation with MOG antigen", "result": "significant decrease"}, {"measurement": "Solubility in solvent: chloroform", "setting": "Solubility in solvent; chloroform", "result": "readily soluble"}, {"measurement": "Solubility in solvent: ethanol", "setting": "Solubility in solvent; ethanol", "result": "hardly soluble"}, {"measurement": "Solubility in solvent: water", "setting": "Solubility in solvent; water", "result": "insoluble"}, {"measurement": "expression level of CD40", "setting": "[2]; [4]", "result": "significantly decreased"}, {"measurement": "expression level of CD80", "setting": "[2]; [4]", "result": "significantly decreased"}, {"measurement": "expression level of CD86", "setting": "[2]; [4]", "result": "significantly decreased"}, {"measurement": "expression level of ICOS-L marker", "setting": "[2]; [4]", "result": "remained almost unchanged"}, {"measurement": "expression level of MHC class II molecule I-A/I-E", "setting": "[2]; [4]", "result": "significantly decreased"}, {"measurement": "expression of anti-inflammatory cytokine IL-10 (ELISA)", "setting": "[2]; [5]", "result": "slightly increased"}, {"measurement": "expression of inflammatory cytokine IL-12p40 (ELISA)", "setting": "[2]; [5]", "result": "drastically decreased"}, {"measurement": "effective concentration on DCs", "setting": "[2]; DCs", "result": 1, "unit": "µM"}, {"measurement": "expression level of CD80 on human DCs", "setting": "[3]", "result": "decreased"}, {"measurement": "expression level of CD86 on human DCs", "setting": "[3]", "result": "decreased"}, {"measurement": "expression level of MHC class II molecule HLA-DR on human DCs", "setting": "[3]", "result": "decreased"}]}]}
